Laboratory results reported in ChEMBL document CHEMBL1131377, “Novel 5-(3-aryl-2-propynyl)-5-(arylsulfonyl)thiazolidine-2,4-diones as antihyperglycemic agents” (1998).

Key:
Assay type in all cases: functional
Mus musculus [1] = assay: % decrease in insulin of 4 day ob/ob mouse was measured at 50 mg/kg/day dosage.
Mus musculus [2] = assay: Percent decrease in glucose of db/db mouse was measured at 20 mg/kg/day dosage
Mus musculus [3] = assay: % decrease in glucose of 4 day ob/ob mouse was measured at 50 mg/kg/day dosage.
Mus musculus [4] = assay: Percent decrease in glucose of db/db mouse was measured at 100 mg/kg/day dosage.
Mus musculus [5] = assay: % decrease in glucose of 4 day ob/ob mouse was measured at 100 mg/kg/day dosage.
Mus musculus [6] = assay: % decrease in insulin of 4 day ob/ob mouse was measured at 100 mg/kg/day dosage.

## O=C1NC(=O)C(CC#Cc2ccc(Cl)cc2)(S(=O)(=O)c2ccc(Cl)cc2)S1 (configuration not stated)
Mus musculus [1]
  Decrease: 56%
Mus musculus [2]
  Decrease: 18%
Mus musculus [3]
  Decrease: 47%
Mus musculus [4]
  Decrease: 70%

## Cc1ccc(S(=O)(=O)C2(CC#Cc3cc(C(F)(F)F)cc(C(F)(F)F)c3)SC(=O)NC2=O)cc1 (configuration not stated)
Mus musculus [4]
  Decrease: 22%

## Cc1ccc(S(=O)(=O)C2(CC#Cc3ccc(C(F)(F)F)cc3)SC(=O)NC2=O)cc1 (configuration not stated)
Mus musculus [2]
  Decrease: <15%
Mus musculus [4]
  Decrease: 36%

## O=C1NC(=O)C(CC#Cc2ccccc2)(S(=O)(=O)c2ccccc2)S1 (configuration not stated)
Mus musculus [4]
  Decrease: <15%

## Cc1ccc(S(=O)(=O)C(CC#Cc2ccc(Cl)cc2)C(=O)O)cc1 (configuration not stated) [TIBEGLISENE]
Mus musculus [1]
  Decrease: 54%
Mus musculus [3]
  Decrease: <15%
Mus musculus [4]
  Decrease: 30%

## O=C1NC(=O)C(CC#Cc2ccccc2)(S(=O)(=O)c2ccc(Cl)cc2)S1 (configuration not stated)
Mus musculus [4]
  Decrease: 36%

## COc1ccc(S(=O)(=O)C2(CC#Cc3ccccc3)SC(=O)NC2=O)cc1 (configuration not stated)
Mus musculus [4]
  Decrease: 21%

## O=C1NC(=O)C(CC#Cc2ccc(F)c(F)c2)(S(=O)(=O)c2ccc(F)cc2)S1 (configuration not stated)
Mus musculus [4]
  Decrease: 33%

## O=C1NC(=O)C(CC#Cc2ccc(F)cc2)(S(=O)(=O)c2ccccn2)S1 (configuration not stated)
Mus musculus [1]
  Decrease: 54%
Mus musculus [2]
  Decrease: 36%
Mus musculus [3]
  Decrease: 44%
Mus musculus [4]
  Decrease: 67%

## Cc1ccc(SC2(CC#Cc3ccc(Cl)cc3)SC(=O)NC2=O)cc1 (configuration not stated)
Mus musculus [4]
  Decrease: 27%

## COc1ccc(C#CCC2(S(=O)(=O)c3ccccc3)SC(=O)NC2=O)cc1 (configuration not stated)
Mus musculus [4]
  Decrease: 25%

## O=C1NC(=O)C(CC#Cc2ccc(Cl)cc2)(S(=O)(=O)c2ccccn2)S1 (configuration not stated)
Mus musculus [2]
  Decrease: 38%
Mus musculus [4]
  Decrease: 55%

## O=C1NC(=O)C(CC#Cc2ccc(Cl)cc2)(S(=O)(=O)c2ccccc2)S1 (configuration not stated)
Mus musculus [5]
  Decrease: 40%
Mus musculus [6]
  Decrease: 65%
Mus musculus [2]
  Decrease: 21%
Mus musculus [4]
  Decrease: 52%

## O=C1NC(=O)C(CC#Cc2ccc(Cl)cc2)(Sc2ccccn2)S1 (configuration not stated)
Mus musculus [4]
  Decrease: <15%

## CSc1ccc(C#CCC2(S(=O)(=O)c3ccc(F)cc3)SC(=O)NC2=O)cc1 (configuration not stated)
Mus musculus [4]
  Decrease: <15%

## Cc1ccc(S(=O)(=O)C2(CC#Cc3ccc(Cl)cc3)SC(=O)NC2=O)cc1 (configuration not stated)
Mus musculus [4]
  Decrease: 35%

## O=C1NC(=O)C(CC#Cc2cccc(Cl)c2)(S(=O)(=O)c2ccccc2)S1 (configuration not stated)
Mus musculus [4]
  Decrease: <15%

## Cc1ccc(S(=O)(=O)C2(CC#Cc3ccc(Br)cc3)SC(=O)NC2=O)cc1 (configuration not stated)
Mus musculus [2]
  Decrease: 23%
Mus musculus [4]
  Decrease: 51%

## O=C1NC(=O)C(CC#Cc2cc(C(F)(F)F)cc(C(F)(F)F)c2)(S(=O)(=O)c2ccccc2)S1 (configuration not stated)
Mus musculus [2]
  Decrease: 21%
Mus musculus [4]
  Decrease: 54%

## O=C1NC(=O)C(CC#Cc2ccc(C(F)(F)F)cc2)(S(=O)(=O)c2ccc(F)cc2)S1 (configuration not stated)
Mus musculus [2]
  Decrease: <15%
Mus musculus [4]
  Decrease: 52%

## Cc1cccc(S(=O)(=O)C2(CC#Cc3ccc(Cl)cc3)SC(=O)NC2=O)n1 (configuration not stated)
Mus musculus [2]
  Decrease: <15%
Mus musculus [4]
  Decrease: <15%

## O=C1NC(=O)C(CC#Cc2ccc(F)cc2)(S(=O)(=O)c2ccc(F)cc2)S1 (configuration not stated)
Mus musculus [2]
  Decrease: 25%
Mus musculus [4]
  Decrease: 57%

## O=C1NC(=O)C(CC#Cc2ccc(Cl)cc2)(Sc2ccc(Cl)cc2)S1 (configuration not stated)
Mus musculus [4]
  Decrease: 24%

## Cc1ccc(S(=O)(=O)C2(CC#Cc3cccc(Cl)c3)SC(=O)NC2=O)cc1 (configuration not stated)
Mus musculus [4]
  Decrease: 30%

## O=C1NC(=O)C(CC#Cc2ccc(C(F)(F)F)cc2)(S(=O)(=O)c2ccc(Cl)cc2)S1 (configuration not stated)
Mus musculus [4]
  Decrease: 37%

## O=C1NC(=O)C(CC#Cc2ccc(Cl)cc2)(S(=O)(=O)c2ccc(F)cc2)S1 (configuration not stated)
Mus musculus [2]
  Decrease: 31%
Mus musculus [4]
  Decrease: 79%

## O=C1NC(=O)C(CC#Cc2ccc(OC(F)(F)F)cc2)(S(=O)(=O)c2ccc(F)cc2)S1 (configuration not stated)
Mus musculus [2]
  Decrease: <15%
Mus musculus [4]
  Decrease: 56%

## O=C1NC(=O)C(CC#Cc2ccc(Cl)cc2)(Sc2ccc(F)cc2)S1 (configuration not stated)
Mus musculus [4]
  Decrease: <15%

## O=C1NC(=O)C(CC#Cc2ccc(Br)cc2)(S(=O)(=O)c2ccccc2)S1 (configuration not stated)
Mus musculus [2]
  Decrease: <15%
Mus musculus [4]
  Decrease: 53%

## O=C1NC(=O)C(CC#Cc2cc(C(F)(F)F)cc(C(F)(F)F)c2)(S(=O)(=O)c2ccccn2)S1 (configuration not stated)
Mus musculus [2]
  Decrease: <15%

## O=C1NC(=O)C(CC#Cc2ccc(C(F)(F)F)cc2)(S(=O)(=O)c2ccccc2)S1 (configuration not stated)
Mus musculus [2]
  Decrease: <15%
Mus musculus [4]
  Decrease: 59%

## Cc1ccc(S(=O)(=O)C2(CC#Cc3ccccc3Cl)SC(=O)NC2=O)cc1 (configuration not stated)
Mus musculus [4]
  Decrease: 30%

## O=C1NC(=O)C(CC#Cc2ccc(Cl)cc2)(S(=O)(=O)c2ccc3ccccc3n2)S1 (configuration not stated)
Mus musculus [2]
  Decrease: <15%

## O=C1NC(=O)C(CC#Cc2ccc(Cl)cc2)(S(=O)(=O)c2ccc(Br)cc2)S1 (configuration not stated)
Mus musculus [1]
  Decrease: 69%
Mus musculus [2]
  Decrease: <15%
Mus musculus [3]
  Decrease: 36%
Mus musculus [4]
  Decrease: 69%

## CC1(COc2ccc(CC3SC(=O)NC3=O)cc2)CCCCC1 (configuration not stated) [CIGLITAZONE]
Mus musculus [5]
  Decrease: 43%
Mus musculus [6]
  Decrease: 39%
Mus musculus [2]
  Decrease: <15%
Mus musculus [4]
  Decrease: 32%

## O=C1NC(=O)C(CC#Cc2ccccc2)(S(=O)(=O)c2ccc(F)cc2)S1 (configuration not stated)
Mus musculus [4]
  Decrease: 26%

## O=C1NC(=O)C(CC#Cc2ccc(Br)cc2)(S(=O)(=O)c2ccc(Cl)cc2)S1 (configuration not stated)
Mus musculus [2]
  Decrease: <15%
Mus musculus [4]
  Decrease: 68%

## O=C1NC(=O)C(CC#Cc2ccc(Cl)cc2)(S(=O)(=O)c2ccc3ccccc3c2)S1 (configuration not stated)
Mus musculus [4]
  Decrease: 20%

## Cc1cccc(SC2(CC#Cc3ccc(Cl)cc3)SC(=O)NC2=O)n1 (configuration not stated)
Mus musculus [4]
  Decrease: <15%

## O=C1NC(=O)C(S(=O)(=O)c2ccc3ccccc3c2)S1 (configuration not stated)
Mus musculus [4]
  Decrease: 21%

## O=C1NC(=O)C(CC#Cc2ccccc2Cl)(S(=O)(=O)c2ccccc2)S1 (configuration not stated)
Mus musculus [4]
  Decrease: <15%

## O=C1NC(=O)C(CC#Cc2ccc(F)cc2)(S(=O)(=O)c2ccc(Br)cc2)S1 (configuration not stated)
Mus musculus [2]
  Decrease: <15%
Mus musculus [4]
  Decrease: 64%

## O=C1NC(=O)C(CC#Cc2ccccc2)(S(=O)(=O)c2ccc(Br)cc2)S1 (configuration not stated)
Mus musculus [2]
  Decrease: <15%
Mus musculus [4]
  Decrease: 43%

## O=C1NC(=O)C(CC#Cc2ccc(F)cc2)(S(=O)(=O)c2ccccc2)S1 (configuration not stated)
Mus musculus [2]
  Decrease: <15%
Mus musculus [4]
  Decrease: 58%

## O=C1NC(=O)C(CC#Cc2ccc(Cl)cc2)(Sc2ccccc2)S1 (configuration not stated)
Mus musculus [4]
  Decrease: <15%

## COc1ccc(S(=O)(=O)C2(CC#Cc3ccc(Cl)cc3)SC(=O)NC2=O)cc1 (configuration not stated)
Mus musculus [2]
  Decrease: <15%
Mus musculus [4]
  Decrease: 45%

## Cc1ccc(C#CCC2(S(=O)(=O)c3ccc(C)cc3)SC(=O)NC2=O)cc1 (configuration not stated)
Mus musculus [4]
  Decrease: 28%

## Cc1ccc(C#CCC2(S(=O)(=O)c3ccccc3)SC(=O)NC2=O)cc1 (configuration not stated)
Mus musculus [4]
  Decrease: <15%

## O=C1NC(=O)C(CC#Cc2ccc(F)cc2)(S(=O)(=O)c2ccc(Cl)cc2)S1 (configuration not stated)
Mus musculus [2]
  Decrease: <15%
Mus musculus [4]
  Decrease: 54%

## Cc1cccc(S(=O)(=O)C2(CC#Cc3ccc(Cl)cc3)SC(=O)NC2=O)c1 (configuration not stated)
Mus musculus [4]
  Decrease: 33%

## Cc1ccc(S(=O)(=O)C2(CC#Cc3ccc(F)cc3)SC(=O)NC2=O)cc1 (configuration not stated)
Mus musculus [1]
  Decrease: 30%
Mus musculus [2]
  Decrease: <15%
Mus musculus [3]
  Decrease: 30%
Mus musculus [4]
  Decrease: 65%

## COc1ccc(C#CCC2(S(=O)(=O)c3ccc(C)cc3)SC(=O)NC2=O)cc1 (configuration not stated)
Mus musculus [4]
  Decrease: <15%

## O=C1NC(=O)C(CC#Cc2ccccc2)(S(=O)(=O)c2ccc3ccccc3c2)S1 (configuration not stated)
Mus musculus [4]
  Decrease: 24%

## Cc1ccc(S(=O)(=O)C2(CC#Cc3ccccc3)SC(=O)NC2=O)cc1 (configuration not stated)
Mus musculus [2]
  Decrease: 23%
Mus musculus [4]
  Decrease: 43%

## Cc1cccc(S(=O)(=O)C2(CC#Cc3ccccc3)SC(=O)NC2=O)c1 (configuration not stated)
Mus musculus [2]
  Decrease: <15%
Mus musculus [4]
  Decrease: 48%

## O=C1NC(=O)C(CC#Cc2ccc(Cl)cc2)(Sc2ccc3ccccc3n2)S1 (configuration not stated)
Mus musculus [4]
  Decrease: <15%

## O=C1NC(=O)C(CC#Cc2ccc(Br)cc2)(S(=O)(=O)c2ccc(F)cc2)S1 (configuration not stated)
Mus musculus [2]
  Decrease: <15%
Mus musculus [4]
  Decrease: 70%
